The values below come from patent publication US20050197350A1, “Novel quinoline, tetrahydroquinazoline, and pyrimidine derivatives and methods of treatment related to the use thereof” (TAISHO PHARMACEUTICAL CO., LTD., priority 2003, published 2005).

The test system of this experiment is MCH receptors. Put plainly: MCH receptor activity class (method not given).
The mark [1] stands for this setting: class by percent of control at 10^−7 M or IC50.
[2] abbreviates: MCH receptor, class by percent of control at 10^-7 M or IC50.
Setting [3] is: MCH receptor activity class 1-3 (percent of control at 10^-7 M or IC50).
Where [4] appears, read: class 1-3 by percent of control at 10^-7 M or IC50.
Setting [5] is: class by percent of control at 10^-7 M or IC50.
[6] abbreviates: activity class 1-3: percent of control at 10^-7 M or IC50.
The mark [7] stands for this setting: activity class per percent of control at 10^-7 M or IC50.

Regarding `COc1ccc(N(C)C(=O)N[C@H]2CC[C@@H](Nc3ncc(C)c(N(C)C)n3)CC2)cc1` [compound 3029, N′-(cis-4-{[4-(dimethylamino)-5-methylpyrimidin-2-yl]amino}cyclohexyl)-N-(4-methoxyphenyl)-N-methylurea], under setting [1], the class is reported as 1 (Class 1: The value of percent of control at 10^−7 M was less than 40% or the value of IC50 was less than 50 nM.). The same measure, in the same setting: the result for `Cc1cnc(N[C@H]2CC[C@@H](NC(=O)c3cccnc3Oc3cccc(Cl)c3)CC2)nc1N(C)C` [compound 2893, 2-(3-chlorophenoxy)-N-(cis-4-{[4-(dimethylamino)-5-methylpyrimidin-2-yl]amino}cyclohexyl)nicotinamide] reads 1 (Class 1: The value of percent of control at 10^−7 M was less than 40% or the value of IC50 was less than 50 nM.).

Take `CN(C)c1cc(N[C@H]2CC[C@@H](NC(=O)c3cc4ccccc4s3)CC2)nc2ccccc12` [compound 94]: the class under setting [2] was 3 (Class 3 The value of percent of control at 10^−7 M was more than 60% or the value of IC50 was more than 200 nM.). Turning to `CN(C)c1nc(N[C@H]2CC[C@@H](CNC(=O)Nc3ccc(Cl)cc3C(F)(F)F)CC2)nc2c1CCCC2` [compound 2479], the class under setting [3] is given as 3 (Class 3 The value of percent of control at 10^−7 M was more than 60% or the value of IC50 was more than 200 nM.). As to `CN(C)c1nc(N[C@H]2CC[C@@H](NC(=O)c3cc(Cl)cc(Cl)c3)CC2)nc2c1CCCC2` [compound 466, 3,5-dichloro-N-(cis-4-{[4-(dimethylamino)-5,6,7,8-tetrahydroquinazolin-2-yl]amino}cyclohexyl)benzamide], the class under setting [4] is 1 (Class 1: The value of percent of control at 10^−7 M was less than 40% or the value of IC50 was less than 50 nM.). Regarding `Cc1cc(N(C)C)nc(NC[C@H]2CC[C@@H](NC(=O)c3cc(Cl)cc(Cl)c3)CC2)n1` [compound 2748], the class under setting [1] is 2 (Class 2: The value of percent of control at 10^−7 M was from 40% to 60% or the value of IC′50 was from 50 nM to 200 nM.). As for `CN(C)c1cc(N[C@H]2CC[C@@H](NC(=O)c3cncc(Br)c3)CC2)nc2ccccc12` [compound 88], the class under setting [2] is reported as 3 (Class 3 The value of percent of control at 10^−7 M was more than 60% or the value of IC50 was more than 200 nM.). In the case of `CN(C)c1cc(N[C@H]2CC[C@@H](CNC(=O)Nc3c(F)cc(Br)cc3F)CC2)nc2ccccc12` [compound 2386], the class under setting [3] is listed as 3 (Class 3 The value of percent of control at 10^−7 M was more than 60% or the value of IC50 was more than 200 nM.). Regarding “(3-{(1S)-2-[(cis-4-([4-(dimethylamino)-5,6,7,8-tetrahydroquinazolin-2-yl]amino}cyclohexyl)amino]-1-methylethyl}phenyl)(phenyl)methanol [compound 1496]”, the class under setting [5] is listed as 3 (Class 3 The value of percent of control at 10^−7 M was more than 60% or the value of IC50 was more than 200 nM.). As to `COc1ccc(OC)c(CC(=O)NC[C@H]2CC[C@@H](Nc3cc(N(C)C)c4ccccc4n3)CC2)c1` [compound 162], the class under setting [2] was 3 (Class 3 The value of percent of control at 10^−7 M was more than 60% or the value of IC50 was more than 200 nM.). As to `Cc1ccc(CNC[C@H]2CC[C@@H](Nc3nccc(N(C)C)n3)CC2)cc1I` [compound 1537], the class under setting [6] is recorded as 3 (Class 3 The value of percent of control at 10^−7 M was more than 60% or the value of IC50 was more than 200 nM.). `CN(C)c1nc(N[C@H]2CC[C@@H](NC(=S)NCc3cccc4ccccc34)CC2)nc2c1CCCC2` [compound 1767]: the class under setting [5] is 3 (Class 3 The value of percent of control at 10^−7 M was more than 60% or the value of IC50 was more than 200 nM.). Turning to `CCCCc1ccc(NC(=S)N[C@H]2CC[C@@H](Nc3nc4c(c(N(C)C)n3)CCCC4)CC2)cc1` [compound 2022], under setting [2], the class is given as 3 (Class 3 The value of percent of control at 10^−7 M was more than 60% or the value of IC50 was more than 200 nM.). In the case of `CN(C)c1ccnc(N[C@H]2CC[C@@H](CNC(=O)c3cccc(I)c3)CC2)n1` [compound 403], the class under setting [5] is recorded as 3 (Class 3 The value of percent of control at 10^−7 M was more than 60% or the value of IC50 was more than 200 nM.). Same read-out and setting: the result for `CN(C)c1ccnc(N[C@H]2CC[C@@H](NC(=O)c3c4ccccc4cc4ccccc34)CC2)n1` [compound 892] reads 3 (Class 3 The value of percent of control at 10^−7 M was more than 60% or the value of IC50 was more than 200 nM.). Turning to `CN(C)c1ccnc(N[C@H]2CC[C@@H](NC(=O)c3ccccc3-c3ccccc3)CC2)n1` [compound 894], under setting [5], the class was 3 (Class 3 The value of percent of control at 10^−7 M was more than 60% or the value of IC50 was more than 200 nM.). On the same count and under the same terms, in the case of `CN(C)c1nc(N[C@H]2CC[C@@H](CNC(=O)Nc3ccc(F)c(Cl)c3)CC2)nc2c1CCCC2` [compound 2496] it was 3 (Class 3 The value of percent of control at 10^−7 M was more than 60% or the value of IC50 was more than 200 nM.).

As for `CN(C)c1nc(N[C@H]2CC[C@@H](NC(=O)c3cccc(I)c3)CC2)nc2c1CCCC2` [compound 494], the class under setting [4] is 1 (Class 1: The value of percent of control at 10^−7 M was less than 40% or the value of IC50 was less than 50 nM.). As for `CN(C)c1ccnc(N[C@H]2CC[C@@H](CNC(=O)OCc3ccccc3)CC2)n1` [compound 400], the class under setting [5] is listed as 3 (Class 3 The value of percent of control at 10^−7 M was more than 60% or the value of IC50 was more than 200 nM.). Regarding `CN(C)c1nc(N[C@H]2CC[C@@H](CNC(=O)Cc3csc4ccccc34)CC2)nc2c1CCCC2` [compound 1084], the class under setting [7] was 3 (Class 3 The value of percent of control at 10^−7 M was more than 60% or the value of IC50 was more than 200 nM.).

Regarding `CN(C)c1ccnc(N[C@H]2CC[C@@H](NC(=O)Nc3ccc4c(c3)OCCCO4)CC2)n1` [compound 2254], the class under setting [5] is reported as 3 (Class 3 The value of percent of control at 10^−7 M was more than 60% or the value of IC50 was more than 200 nM.). Same read-out and setting: in the case of `CN(C)c1ccnc(N[C@H]2CC[C@@H](CNCc3ccccc3OC(F)(F)F)CC2)n1` [compound 1289] it was 3 (Class 3 The value of percent of control at 10^−7 M was more than 60% or the value of IC50 was more than 200 nM.). On the same count and under the same terms, in the case of `CN(C)c1ccnc(N[C@H]2CC[C@@H](NC(=O)c3cc(Br)c(Br)o3)CC2)n1` [compound 845] it was 1 (Class 1: The value of percent of control at 10^−7 M was less than 40% or the value of IC50 was less than 50 nM.). Same read-out and setting: the result for `COc1cc(CN[C@H]2CC[C@@H](Nc3nccc(N(C)C)n3)CC2)cc(OC)c1` [compound 1221] reads 3 (Class 3 The value of percent of control at 10^−7 M was more than 60% or the value of IC50 was more than 200 nM.).

Turning to `CN(C)c1nc(N[C@H]2CC[C@@H](NC(=O)Nc3ccc4c(c3)CCC4)CC2)nc2c1CCCC2` [compound 1903], under setting [2], the class is given as 3 (Class 3 The value of percent of control at 10^−7 M was more than 60% or the value of IC50 was more than 200 nM.). Consider `CN(C)c1ccnc(N[C@H]2CC[C@@H](NCCN(CCC#N)c3ccccc3)CC2)n1` [compound 1524], for which, under setting [6], the class is reported as 3 (Class 3 The value of percent of control at 10^−7 M was more than 60% or the value of IC50 was more than 200 nM.). With `Cc1cc(C(=O)NC[C@H]2CC[C@@H](Nc3cc(N(C)C)c4ccccc4n3)CC2)cc(C)c1OCc1ccccc1` [compound 809], under setting [5], the class was 3 (Class 3 The value of percent of control at 10^−7 M was more than 60% or the value of IC50 was more than 200 nM.). In the case of `CN(C)c1nc(N[C@H]2CC[C@@H](NC(=O)Cc3c[nH]c4ccc(OCc5ccccc5)cc34)CC2)nc2c1CCCC2` [compound 1024], the class under setting [7] is given as 3 (Class 3 The value of percent of control at 10^−7 M was more than 60% or the value of IC50 was more than 200 nM.). On to `CN(C)c1ccnc(N[C@H]2CC[C@@H](NC(=O)c3cn(S(=O)(=O)c4ccccc4)c4ccccc34)CC2)n1` [compound 908], for which the class under setting [5] is reported as 3 (Class 3 The value of percent of control at 10^−7 M was more than 60% or the value of IC50 was more than 200 nM.). The same measure, in the same setting: the result for `CN(C)c1cc(N[C@H]2CC[C@@H](NC(=O)c3ccccc3Cc3ccccc3)CC2)nc2ccccc12` [compound 685] reads 3 (Class 3 The value of percent of control at 10^−7 M was more than 60% or the value of IC50 was more than 200 nM.).

Regarding `COc1cc(NC(=S)N[C@H]2CC[C@@H](Nc3nccc(N(C)C)n3)CC2)c(OC)cc1Cl` [compound 2353], the class under setting [3] is reported as 3 (Class 3 The value of percent of control at 10^−7 M was more than 60% or the value of IC50 was more than 200 nM.). Take `Cc1noc(C)c1NC(=S)N[C@H]1CC[C@@H](Nc2nc3c(c(N(C)C)n2)CCCC3)CC1` [compound 2085]: the class under setting [2] is listed as 3 (Class 3 The value of percent of control at 10^−7 M was more than 60% or the value of IC50 was more than 200 nM.). For `Cc1cc(N(C)C)nc(NC[C@H]2CC[C@@H](NC(=O)c3cccc(C(F)(F)F)c3)CC2)n1` [compound 2739], the class under setting [1] was 3 (Class 3 The value of percent of control at 10^−7 M was more than 60% or the value of IC50 was more than 200 nM.). In the case of `Cc1c(NC(=O)N[C@H]2CC[C@@H](Nc3cc(N(C)C)c4ccccc4n3)CC2)cccc1[N+](=O)[O-]` [compound 2111], the class under setting [5] was 3 (Class 3 The value of percent of control at 10^−7 M was more than 60% or the value of IC50 was more than 200 nM.). Consider `CN(C)c1nc(N[C@H]2CC[C@@H](NC(=O)c3ccc(-c4ccc(Cl)cc4[N+](=O)[O-])o3)CC2)nc2c1CCCC2` [compound 952, 5-(4-chloro-2-nitrophenyl)-N-(cis-4-{[4-(dimethylamino)-5,6,7,8-tetrahydroquinazolin-2-yl]amino}cyclohexyl)-2-furamide], for which the class under setting [5] is 1 (Class 1: The value of percent of control at 10^−7 M was less than 40% or the value of IC50 was less than 50 nM.).

Take `Cc1cc(N(C)C)nc(N[C@H]2CC[C@@H](NC(=O)c3cc(F)cc(C(F)(F)F)c3)CC2)n1` [compound 2962, N-(cis-4-{[4-(dimethylamino)-6-methylpyrimidin-2-yl]amino}cyclohexyl)-3-fluoro-5-(trifluoromethyl)benzamide]: the class under setting [1] is 1 (Class 1: The value of percent of control at 10^−7 M was less than 40% or the value of IC50 was less than 50 nM.).
